From the supplement of paper PMC10307832

The cell lines below were run with CCCS(=O)(=O)Nc1ccc(F)c(C(=O)c2c[nH]c3ncc(-c4ccc(Cl)cc4)cc23)c1F [Vemurafenib] + Cc1nc(Nc2ncc(C(=O)Nc3c(C)cccc3Cl)s2)cc(N2CCN(CCO)CC2)n1 [Dasatinib] (partner 0.075 µM) (assay: relative viability (nuclei count vs DMSO), 5 days (fraction); higher = more cells survive). Details: first compound 0.03162 µM.
Outline: (§1)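 Relative viability was taken as the ratio of nuclei in treated wells to nuclei in vehicle wells. Lung cancer cell lines in 1536-well plates received compounds by pin tool one day after seeding, either one drug alone or a fixed anchor-drug dose plus five library-drug doses (not always all listed) in √10 steps. Nuclei were counted on 4× images after 5 days of treatment, and values are medians of duplicate plates.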

Cell Line	relative viability
NCI-H2126	0.562
EPLC-272H	0.299
NCI-H1755	0.396
NCI-H2023	0.507
NCI-H1623	0.565
NCI-H1793	0.415
NCI-H2342	0.313
H3255	0.36
NCI-H1975	0.359
PC-14	0.229
NCI-H1437	0.338
HOP-62	0.535
BEN	0.274
LOU-NH91	0.509
NCI-H661	0.829
NCI-H1651	0.417

Cell Line	relative viability
PC-3 [JPC-3]	0.921
SW 1573	0.567
LK-2	0.306
NCI-H2405	0.213
NCI-H1993	0.298
ChaGo-K-1	0.511
NCI-H1355	0.671
HCC-366	0.576
NCI-H1915	0.294
NCI-H838	0.256
NCI-H522	1.08
NCI-H1563	0.526
CAL-12T	0.42
NCI-H2228	0.399
SW 900	0.827

Same assay, conditions: first compound 0.1 µM

Cell Line	relative viability
NCI-H2126	0.584
EPLC-272H	0.25
NCI-H1755	0.406
NCI-H2023	0.506
NCI-H1650	0.301
NCI-H2342	0.304
NCI-H1975	0.339
NCI-H1437	0.336
HOP-62	0.549
BEN	0.257
NCI-H661	0.59
NCI-H1651	0.462
SW 1573	0.428
LK-2	0.306
NCI-H2405	0.231
ChaGo-K-1	0.517
NCI-H1355	0.703
HCC-366	0.643
NCI-H1915	0.343
NCI-H838	0.22
NCI-H522	0.718
NCI-H1563	0.432
CAL-12T	0.266
NCI-H2228	0.474
SW 900	0.61

Same assay, conditions: first compound 0.3162 µM

Cell Line	relative viability
EPLC-272H	0.338
NCI-H1755	0.243
NCI-H2023	0.444
NCI-H1623	0.716
NCI-H1793	0.237
NCI-H2342	0.266
H3255	0.446
NCI-H1975	0.206
PC-14	0.228
NCI-H1437	0.296
HOP-62	0.292
NCI-H661	0.54
NCI-H1651	0.277
PC-3 [JPC-3]	0.9
SW 1573	0.36
LK-2	0.33
NCI-H1993	0.694
ChaGo-K-1	0.396
NCI-H1355	0.466
HCC-366	0.265
NCI-H1915	0.267
NCI-H522	0.875
NCI-H1563	0.465
CAL-12T	0.454
NCI-H2228	0.54
SW 900	0.538

Same assay, conditions: first compound 1 µM

Cell Line	relative viability
NCI-H2126	0.537
EPLC-272H	0.41
NCI-H1755	0.43
NCI-H2023	0.489
NCI-H1623	0.485
NCI-H1650	0.305
NCI-H1793	0.307
NCI-H2342	0.326
H3255	0.371
NCI-H1975	0.378
PC-14	0.267
NCI-H1437	0.325
HOP-62	0.66
BEN	0.309
LOU-NH91	0.572
NCI-H661	0.938

Cell Line	relative viability
NCI-H1651	0.452
PC-3 [JPC-3]	1.08
SW 1573	0.347
LK-2	0.223
NCI-H2405	0.231
NCI-H1993	0.621
ChaGo-K-1	0.6
NCI-H1355	0.745
HCC-366	0.564
NCI-H1915	0.358
NCI-H838	0.325
NCI-H522	0.855
NCI-H1563	0.419
CAL-12T	0.374
NCI-H2228	0.502
SW 900	0.505

These cell lines were tested with COc1cccc2cc(-c3nc([C@H]4CC[C@H](C(=O)O)CC4)n4ncnc(N)c34)[nH]c12 [OSI-027] + CS(=O)(=O)N1CCN(Cc2cc3nc(-c4cccc5[nH]ncc45)nc(N4CCOCC4)c3s2)CC1 [Pictilisib] (partner 1 µM) in the same assay as above. Details: first compound 0.01 µM.
Outline: as §1

Cell Line	relative viability
NCI-H2126	0.519
EPLC-272H	0.287
NCI-H1755	0.412
NCI-H2023	0.23
NCI-H1650	0.551
NCI-H1793	0.421
H3255	0.466
NCI-H1975	0.279
PC-14	0.526
NCI-H1299	0.787
NCI-H1437	0.359
HOP-62	0.565
HCC-44	0.521
BEN	0.59
LOU-NH91	0.544
NCI-H661	0.42
NCI-H1651	0.538
PC-3 [JPC-3]	0.68

Cell Line	relative viability
SW 1573	0.466
LK-2	0.627
NCI-H2405	0.406
NCI-H1703	0.318
NCI-H1993	0.808
ChaGo-K-1	0.665
NCI-H1355	0.436
HCC-366	0.179
NCI-H1915	0.947
NCI-H838	0.409
Calu-6	0.94
NCI-H1563	0.619
CAL-12T	0.401
EBC-1	0.344
NCI-H2228	0.412
A549	0.53
IA-LM	0.423

Same assay, conditions: first compound 0.03162 µM

Cell Line	relative viability
NCI-H2126	0.487
EPLC-272H	0.308
NCI-H1755	0.392
NCI-H2023	0.229
NCI-H1650	0.553
NCI-H1793	0.329
H3255	0.471
NCI-H1975	0.236
